“Also recorded” adds a separate entry of the source.
Key:
[1] = acute toxicity in mice (LD50); conditions: mouse, in vivo, hydrochloride
[2] = acute toxicity in rats (oral LD50); conditions: rat, in vivo, hydrochloride
[3] = tested on: Anesthetized Dog Challenged with Isoproterenol; experiment: inherent cardiac and blood pressure effects in the isoproterenol challenged intact anesthetized dog; format: in vivo; conditions: for Absolute Change From Control in Contractile Force (CF) / Absolute Change From Control in Heart Rate (HR) / Absolute Change From Control in Mean Arterial Blood Pressure (MABP): decrease
Procedure: One such test involves the measurement of inherent cardiac and blood pressure effects in the isoproterenol challenged intact anesthetized dog. In this test model, dogs are anesthetized with a mixture of phenobarbital sodium (15 mg./kg.) and barbital sodium (225 mg./kg.) intravenously and are vagotomized bilaterally. Heart rate, contractile force and diastolic blood pressure are continuously recorded with alterations in these responses (e.g. tachycardia) produced by intravenously administered isoproterenol determined before and after injection of increasing doses of the test compound. The test substance is administered to separate groups of dogs at cumulative doses of 0.1, 0.3, 1, 3, and 10 mg./kg. body weight with each dose of the test substance infused slowly over a period of 3-5 minutes. After completing infusion of the test substance, a 10 -minute equilibrium period is allowed for drug-receptor interaction and stabilization of the cardiovascular system before a series of isoproterenol challenges is initiated. Maximum response to isoproterenol is achieved after each dose of the beta-adrenergic blocking agent by logarithmically increasing the dose of this agonist as receptor blockade develops. Each dose of isoproterenol is given approximately 5 minutes after the previous one and the overall dose range for isoproterenol is from 0.03-300 micrograms per kilogram body weight. Mean changes in the resting levels of the cardiovascular variables (heart rate, contractile force, and mean arterial blood pressure) due to the administration of each agent (which is taken as a measure of the inherent drug effect) is determined and statistically compared using the Student's test.

[4] = tested on: Spontaneous Hypertensive Rat; experiment: lowering of blood pressure and heart rate in the spontaneously hypertensive rat (SHR); format: in vivo; conditions: for ED (40 mm Hg) / ED (10%): Rattus norvegicus, 4 h; for ED (40 mm Hg): read-out: Dose which lowers blood pressure by 40 mm Hg; for ED (10%): read-out: Dose which lowers heart rate by 10%; for reduction of heart rate / reduction of systolic blood pressure: doses of 50-200 mg./kg., 4 hours (FIG. 1, FIG. 2)
Procedure: FIG. 1 constitutes a dose-response graph of blood pressure and heart rate changes determined in the spontaneous hypertensive rat 4 hours after orally administered 4'-[1-hydroxy-2-[(1 -phenoxyethyl)amino]ethyl]methanesulfonanilide (Compound A). Blood pressure changes at doses of 50, 100, and 200 mg./kg. body weight are given in millimeters of mercury and are represented by circles (-0 -) with percent change in heart rate represented by squares (- -).
FIG. 2 constitutes a dose-response graph of blood pressure and heart rate changes similar to that of FIG. 1 for 4-[2-( 1-phenoxy-2-propylamino)-1-hydroxyethyl]methanesulfonanilide (Compound B).
Another in vivo animal experiment considered predictive of antihypertensive utility by those skilled in the art is the lowering of blood pressure in an inbred strain of spontaneously hypertensive rat (SHR) established by Okamoto and Aoki. In this test, systolic blood pressure and heart rate determinations are made immediately before the animals are orally dosed to provide control values and subsequently thereafter at 4 and 24-hour periods to determine drug effect. Various doses of test drug are administered and a dose-response graph obtained by plotting (on semi-log paper) the observed change (mm Hg) in systolic blood pressure and percent change in heart rate as […]. […] Values set forth in Table II below are taken from FIGS. 1 and 2.

mammals = experiment: general statement on heart rate at effective antihypertensive doses; format: in vivo; conditions: for change in heart rate: at effective antihypertensive or hypotensive doses
beta-receptor = conditions: isolated guinea pig tracheal spiral; Uloth et al., J. Med. Chem. 9, 88-97 (1966); cited from earlier work
[5] = 0.3 mg/kg i.v., + = increase from control (footnote c)

SMILES | Absolute Change From Control in Contractile Force (CF) ([3]; 0.3 mg/kg i.v.) | Absolute Change From Control in Heart Rate (HR) ([3]; 0.3 mg/kg i.v.) | Absolute Change From Control in Mean Arterial Blood Pressure (MABP) [3, 5] | Absolute Change From Control in Contractile Force (CF) ([3]; 1.0 mg/kg i.v.) | Absolute Change From Control in Heart Rate (HR) ([3]; 1.0 mg/kg i.v.) | Absolute Change From Control in Mean Arterial Blood Pressure (MABP) ([3]; 1.0 mg/kg i.v.) | Absolute Change From Control in Contractile Force (CF) ([3]; 3.0 mg/kg i.v.) | Absolute Change From Control in Heart Rate (HR) ([3]; 3.0 mg/kg i.v.) | Absolute Change From Control in Mean Arterial Blood Pressure (MABP) ([3]; 3.0 mg/kg i.v.) | Absolute Change From Control in Contractile Force (CF) ([3]; 10.0 mg/kg i.v.) | Absolute Change From Control in Heart Rate (HR) ([3]; 10.0 mg/kg i.v.) | Absolute Change From Control in Mean Arterial Blood Pressure (MABP) ([3]; 10.0 mg/kg i.v.) | effect on mean arterial blood pressure ([3]; doses of 0.3 to 1.0 mg./kg.) | ED (40 mm Hg) ([4]; oral, taken from FIGS. 1 and 2) | ED (10%) ([4]; oral, taken from FIGS. 1 and 2) | reduction of heart rate ([4]; oral) | reduction of systolic blood pressure ([4]; oral) | Percent decrease in heart rate at dose lowering blood pressure by 40 mm Hg ([4]; oral, taken from FIGS. 1 and 2) | change in heart rate (mammals) | other results
CS(=O)(=O)Nc1ccc(C(O)CNCCOc2ccccc2)cc1.Cl (stereo not drawn) [4'-[1-Hydroxy-2-[(2-phenoxyethyl)amino]ethyl]methanesulfonanilide Hydrochloride] |  |  |  |  |  |  |  |  |  |  |  |  |  |  |  |  |  |  |  | LD50 ([1]; ip, intraperitoneal, read-out: intraperitoneal LD50): 273 mg/kg; LD50 ([1]; oral, read-out: oral LD50): 1920 mg/kg; LD50 ([2]; female rat): 1950 mg/kg; LD50 ([2]; male rat): 3550 mg/kg
CS(=O)(=O)Nc1ccc(C(O)CNCCOc2ccccc2)cc1 (stereo not drawn) [Compound A, 4'-[1-hydroxy-2-[(2-phenoxyethyl)amino]ethyl]methanesulfonanilide] | 8 ± 6 gm | 22 ± 4 bpm | 17 ± 3 mm Hg | 11 ± 5 gm | 32 ± 5 bpm | 12 ± 3 mm Hg | 11 ± 5 gm | 38 ± 6 bpm | 16 ± 4 mm Hg | 17 ± 7 gm | 38 ± 6 bpm | 34 ± 7 mm Hg | effectively reduces mean arterial blood pressure | 165 mg/kg | 150 mg/kg | 2-12% | 22-43 mm Hg | 11% | little or no effect on heart rate | Absolute Change From Control in Contractile Force (CF) ([3]; 0.1 mg/kg i.v.): 9 ± 6 gm; Absolute Change From Control in Heart Rate (HR) ([3]; 0.1 mg/kg i.v.): 18 ± 4 bpm; Absolute Change From Control in Mean Arterial Blood Pressure (MABP) ([3]; 0.1 mg/kg i.v.): 11 ± 1 mm Hg; reduction in heart rate ([3]; dose of 0.1 mg./kg.): 12%; bradycardia liability relative to Compound B ([4]; at doses sufficient to reduce blood pressure by 40 mm Hg): about 50%; Percent decrease in blood pressure at dose lowering heart rate by 10% ([4]; oral, taken from FIGS. 1 and 2): 38%; change in heart rate (mammals; listed as compound of the instant invention): little or no significant change in heart rate; effect on blood pressure (mammals; effective dose): reduces blood pressure
CC(COc1ccccc1)NCC(O)c1ccc(NS(C)(=O)=O)cc1 (stereo not drawn) [Compound B, 4-[2-(1-phenoxy-2-propylamino)-1-hydroxyethyl]methanesulfonanilide, reference compound] | 6 ± 7 gm | 29 bpm | +1 ± 5 mm Hg | 4 ± 7 gm | 39 ± 7 bpm | 2 ± 6 mm Hg | 4 ± 7 gm | 54 ± 7 bpm | 10 ± 8 mm Hg | 6 ± 9 gm | 72 ± 9 bpm | 28 ± 14 mm Hg | no significant effect | 100 mg/kg | 18 mg/kg | 17-25% | 18-64 mm Hg | 21% | substantial decrease in heart rate | reduction in heart rate ([3]; dose of 3 mg./kg.): 33%; effect on heart rate (bradycardia) ([3]; doses of 0.3 to 1.0 mg./kg.): pronounced bradycardia; decrease in blood pressure at dose lowering heart rate by 10% (in words) ([4]; oral, taken from FIGS. 1 and 2): no significant; also recorded: no effect on blood pressure; beta-receptor blocking activity relative to dichloroisoproterenol (beta-receptor): four times the activity of dichloroisoproterenol

Source: patent US4044150A, “Antihypertensive 4'-[1-hydroxy-2-[(1-phenoxy ethyl)-amino]ethyl]methanesulfonanilide and salts thereof and therapeutic use” (Mead Johnson & Company, priority 1976, dated 1977)
